For experiment [1], the target named is T1, Acetylcholinesterase (Homo sapiens, UniProt P22303).
Description: Inhibitory activity against Acetylcholinesterase enzyme using human AChE assay
Experiment [2] deals with T1, Acetylcholinesterase. This is another data set of the same source.
Description: Binding affinity towards Acetylcholinesterase

The text below walks through data of ChEMBL document CHEMBL1138798, “A docking score function for estimating ligand-protein interactions: application to acetylcholinesterase inhibition” (J Med Chem, 2004).

As usually defined, the IC50 is the concentration needed to halve the response being measured. Low values mean greater potency, high ones weaker potency. As a reminder, the Ki is the equilibrium dissociation constant of an inhibitor or competing ligand from its target.

Each structure is given as a SMILES string.

T1 sequence (P22303 whole entry): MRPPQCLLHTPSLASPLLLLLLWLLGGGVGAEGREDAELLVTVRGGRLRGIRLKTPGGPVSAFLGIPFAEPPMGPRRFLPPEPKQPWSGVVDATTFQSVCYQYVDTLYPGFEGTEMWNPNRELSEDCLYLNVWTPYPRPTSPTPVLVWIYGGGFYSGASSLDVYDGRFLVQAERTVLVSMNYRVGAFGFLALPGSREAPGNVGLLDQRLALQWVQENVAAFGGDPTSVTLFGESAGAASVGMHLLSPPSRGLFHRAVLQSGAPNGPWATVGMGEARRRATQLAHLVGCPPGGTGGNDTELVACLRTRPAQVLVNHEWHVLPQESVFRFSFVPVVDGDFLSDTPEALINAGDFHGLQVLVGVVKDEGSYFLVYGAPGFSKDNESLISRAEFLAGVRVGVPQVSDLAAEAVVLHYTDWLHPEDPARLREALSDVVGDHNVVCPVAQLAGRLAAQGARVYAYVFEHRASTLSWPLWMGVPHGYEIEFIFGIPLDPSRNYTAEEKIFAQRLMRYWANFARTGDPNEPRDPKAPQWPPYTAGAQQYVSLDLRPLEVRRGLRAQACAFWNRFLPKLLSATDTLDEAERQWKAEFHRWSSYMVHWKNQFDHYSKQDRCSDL

Compound `COc1cc2cc(C(=O)C3CCC[N+](C)(CC(=O)OC(C)(C)C)CC3)sc2cc1OC` (stereo unspecified) registered an IC50 in experiment [1] of 79 nM. The compound further gave an inhibition constant (Ki) in experiment [2] of 79.4 nM.

Take `C[N+]1(Cc2ccccc2)CCC(CCC(=O)c2ccc3c(c2)CCCCO3)CC1` (stereo unspecified): the inhibition constant Ki in experiment [2] was 138 nM.

Take `Cc1cc(C(=O)CCC2CC[N+](C)(Cc3ccccc3)CC2)nn1-c1ccccc1` (stereo unspecified): the Ki in experiment [2] was 21.9 nM.

In experiment [2], `C[N+]1(Cc2ccccc2)CCC(CCC(=O)c2ccc3c(c2)OCCO3)CC1` (stereo unspecified) showed an inhibition constant (Ki) of 100 nM.

On to `Brc1ccc2c(CCC3CCN(Cc4ccccc4)CC3)noc2c1`, for which the affinity in experiment [2], expressed as Ki, was 50.1 nM.

For `COc1cc2c(cc1OC)SC(C(=O)CC(O)C1CC[N+](C)(Cc3ccccc3)CC1)C2` (stereo unspecified), the IC50 in experiment [1] worked out at 190 nM. The compound further gave an inhibition constant Ki in experiment [2] of 191 nM.

In experiment [2], `O=S(=O)(Nc1ccc2c(CCC3CCN(Cc4ccccc4)CC3)noc2c1)c1ccccc1` showed a Ki of 14.1 nM.

As for `COc1ccc2cc(C(=O)CCC3CC[N+](C)(Cc4ccccc4)CC3)ccc2c1` (stereo unspecified), in experiment [2], the affinity, expressed as Ki, was 50.1 nM.

In experiment [1], `COc1cc2c(cc1OC)SC(C(=O)CCc1cc[n+](Cc3coc([N+](=O)[O-])c3)cc1)C2` (stereo unspecified) came in with a concentration for half-maximal inhibition (IC50) of 4.5 nM. Besides, in experiment [2], the inhibitory constant (Ki) is 4.47 nM.

In turn, `COc1cc2cc(C(=O)CCC3CC[N+](C)(Cc4ccccc4)CC3)n(C)c2cc1OC` (stereo unspecified) had an inhibition constant (Ki) in experiment [2] of 120 nM.

On to `COCC[N+]1(C)CCCC(C(=O)c2cc3cc(OC)c(OC)cc3s2)CC1` (stereo unspecified), for which the 50% inhibitory concentration (IC50) in experiment [1] was 53 nM. In addition, in experiment [2], the affinity corresponds to a Ki of 52.5 nM.

For the compound `COc1cc2c(cc1OC)SC(C(=O)CCc1cc[n+](Cc3ccsc3)cc1)C2` (stereo unspecified), the IC50 in experiment [1] was determined as 6 nM. The compound further gave a Ki in experiment [2] of 6.03 nM.

In turn, `COc1cc2cc(C(=O)C3CCC[N+](C)(CC#N)CC3)sc2cc1OC` (stereo unspecified) registered an IC50 in experiment [1] of 1000 nM. Besides, in experiment [2], the Ki was 1000 nM.

With `CN1C(=O)Cc2cc3onc(CCC4CCN(Cc5ccccc5)CC4)c3cc21`, in experiment [1], the IC50 was found to be 0.48 nM. This compound also showed a Ki in experiment [2] of 0.479 nM.

In turn, `O=C1Cc2cc3c(CCC4CCN(Cc5ccccc5)CC4)noc3cc2N1` [ICOPEZIL] had an inhibitory constant (Ki) in experiment [2] of 0.331 nM.

With `O=C1Cc2c(ccc3c(CCC4CCN(Cc5ccccc5)CC4)noc23)N1`, the affinity in experiment [2] corresponds to a Ki of 3.63 nM.

Consider `COc1cc2cc(C(=O)CC3CCCC[N+](C)(Cc4ccccc4)CC3)sc2cc1OC` (stereo unspecified), for which, in experiment [1], the IC50 was 110 nM. In experiment [2], this compound had a Ki of 110 nM.

Compound `COc1cc2c(cc1OC)SC(C(=O)CCc1cc[n+](CC3CCC3)cc1)C2` (stereo unspecified) had a 50% inhibitory concentration (IC50) in experiment [1] of 40 nM. In addition, the inhibition constant (Ki) in experiment [2] was 39.8 nM.

`COc1cc2cc(C(=O)C3CC[N+](C)(Cc4ccccc4)CCC3OC)sc2cc1OC` (stereo unspecified): the IC50 in experiment [1] was 120 nM. Moreover, the Ki in experiment [2] was 120 nM.

In turn, `O=C1Cc2cc3onc(CCC4CCN(Cc5ccccc5)CC4)c3cc2N1` gave a Ki in experiment [2] of 0.955 nM.

The compound `COc1cc2c(cc1OC)SC(C(=O)CCc1cc[n+](CC3CC3)cc1)C2` (stereo unspecified) returned a concentration for half-maximal inhibition (IC50) in experiment [1] of 110 nM. Besides, in experiment [2], the inhibition constant (Ki) is 110 nM.

The compound `COc1cc2cc(C(=O)C3CC[N+](C)(Cc4ccccc4)CCC3O)sc2cc1OC` (stereo unspecified) registered an IC50 in experiment [1] of 43 nM. In addition, in experiment [2], the inhibition constant Ki is 42.7 nM.

`N#Cc1ccc2c(CCC3CCN(Cc4ccccc4)CC3)noc2c1` showed a Ki in experiment [2] of 100 nM.

In experiment [1], `COc1cc2c(cc1OC)SC(C(=O)CCc1cc[n+](C)cc1)C2` (stereo unspecified) had an IC50 of 900 nM. For the same compound, in experiment [2], the affinity corresponds to a Ki of 891 nM.

On to `CCOCC[n+]1ccc(CCC(=O)C2Cc3cc(OC)c(OC)cc3S2)cc1` (stereo unspecified), for which the concentration for half-maximal inhibition (IC50) in experiment [1] was 7 nM. In experiment [2], this compound had a Ki of 7.08 nM.

Compound `C[N+]1(Cc2ccccc2)CCC(CCC(=O)c2ccc3c(c2)OCO3)CC1` (stereo unspecified) showed an IC50 in experiment [1] of 41.5 nM. This compound had a Ki in experiment [2] of 41.7 nM.

Regarding `COc1cc2cc(C(=O)C3CCC[N+](C)(Cc4ccc([N+](=O)[O-])o4)CC3)sc2cc1OC` (stereo unspecified), in experiment [1], the IC50 worked out at 32 nM. Moreover, the inhibitory constant (Ki) in experiment [2] is 32.4 nM.

Consider `O=C1CCc2cc3c(CCC4CCN(Cc5ccccc5)CC4)noc3cc2N1`, for which, in experiment [2], the affinity corresponds to a Ki of 0.575 nM.

In experiment [2], `Cc1ccc2onc(CCC3CCN(Cc4ccccc4)CC3)c2c1` had a Ki of 7.76 nM.

Compound `COc1cc2cc(C(=O)C3CCC[N+](C)(Cc4ccccc4)CC3)sc2cc1OC` (stereo unspecified) came in with an IC50 in experiment [1] of 8 nM. For the same compound, affinity in experiment [2] was put at a Ki of 7.94 nM.

In experiment [1], `COc1cc2cc(C3CC[N+](C)(Cc4ccccc4)CC3O)sc2cc1OC` (stereo unspecified) showed a half-inhibitory concentration (IC50) of 19600 nM. The same compound had a Ki in experiment [2] of 19500 nM.

For `O=C(CCc1cc[n+](Cc2ccccc2)cc1)c1ccc2c(c1)OCO2`, the concentration for half-maximal inhibition (IC50) in experiment [1] came to 240 nM. The compound also had a Ki in experiment [2] of 240 nM.

For `COC(=O)C[N+]1(C)CCC(CCC(=O)C2Cc3cc(OC)c(OC)cc3S2)CC1` (stereo unspecified), in experiment [1], the 50% inhibitory concentration (IC50) came out at 54 nM. This compound gave a Ki in experiment [2] of 53.7 nM.

`COc1cc2c(cc1OC)C(=O)C(C1CC[N+](C)(Cc3ccccc3)CC1)=C2` (stereo unspecified) displayed an IC50 in experiment [1] of 250 nM. Also, in experiment [2], the inhibition constant (Ki) is 251 nM.

In experiment [1], `C=CC[n+]1ccc(CCC(=O)C2Cc3cc(OC)c(OC)cc3S2)cc1` (stereo unspecified) gave a 50% inhibitory concentration (IC50) of 6.27 nM. This compound also gave a Ki in experiment [2] of 219 nM.

As for `COc1cc2c(cc1OC)SC(CC1CC[N+](C)(Cc3ccccc3)CC1)C2` (stereo unspecified), half-maximal inhibition in experiment [1] (IC50) required 30000 nM. Moreover, in experiment [2], the Ki was 30200 nM.

`CCC[n+]1ccc(CCC(=O)C2Cc3cc(OC)c(OC)cc3S2)cc1` (stereo unspecified) returned an IC50 in experiment [1] of 2570 nM. The compound further gave a Ki in experiment [2] of 2570 nM.

`COc1cc2cc(C(=O)C3=CC[N+](C)(Cc4ccccc4)CC3)sc2cc1OC` (stereo unspecified) returned an IC50 in experiment [1] of 520 nM. Moreover, the inhibition constant (Ki) in experiment [2] was 525 nM.

Take `CC(=O)Nc1ccc2c(CCC3CCN(Cc4ccccc4)CC3)noc2c1`: in experiment [2], the Ki is 2.82 nM.

The compound `COc1cc2c(cc1OC)SC(C(=O)CCc1cc[n+](Cc3ccc(F)cc3)cc1)C2` (stereo unspecified) came in with an IC50 in experiment [1] of 2.6 nM. The same compound showed a Ki in experiment [2] of 2.57 nM.

`COc1cc2onc(CCC3CCN(Cc4ccccc4)CC3)c2cc1C` displayed an IC50 in experiment [1] of 5.8 nM. Also, in experiment [2], the affinity corresponds to a Ki of 5.75 nM.

Consider `COc1cc2cc(C3=CC[N+](C)(Cc4ccccc4)CC3)sc2cc1OC` (stereo unspecified), for which the half-inhibitory concentration (IC50) in experiment [1] is 2670 nM. The compound also gave an inhibition constant (Ki) in experiment [2] of 2690 nM.

Regarding `COc1cc2c(cc1OC)SC(C(=O)CC1C=CC[N+](C)(Cc3ccccc3)CC1)C2` (stereo unspecified), the IC50 in experiment [1] amounted to 750 nM. Further, the affinity in experiment [2], expressed as Ki, was 759 nM.

As to `COCC[n+]1ccc(CCC(=O)C2Cc3cc(OC)c(OC)cc3S2)cc1` (stereo unspecified), the midpoint of inhibition in experiment [1], the IC50, lay at 30 nM. The compound also had an inhibition constant (Ki) in experiment [2] of 30.2 nM.

`CC[n+]1ccc(CCC(=O)C2Cc3cc(OC)c(OC)cc3S2)cc1` (stereo unspecified) showed an IC50 in experiment [1] of 280 nM. The inhibition constant Ki in experiment [2] is 282 nM.
